Laboratory results as given in US6914045B2, “Glycopeptide antibiotics” (Wyeth Holdings Corporation, priority 2001, dated 2005).
Converted amounts (≈) assume the structure as drawn.

Legend:
Assay in all cases: in vitro antibacterial evaluation, MIC by broth dilution
Type in all cases: cell-based
Enterococcus sp. = settings: broth dilution, 18 hours at 35° C.
Outline: (§1)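 Broth dilution per NCCLS M7-A2 in Mueller-Hinton II medium, inoculum 5×10^5 CFU/mL, antibiotic range 64-0.06 μg/mL. MIC taken as lowest concentration inhibiting growth; Gram-positive panel includes recent clinical isolates resistant to methicillin, penicillin and/or vancomycin.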

Staphylococcus sp. = settings: broth dilution, 18 hours at 35° C.; for MIC Staphylococcus aureus (GC 1131): strain GC 1131
Outline: as §1

Streptococcus sp. = settings: broth dilution, 18 hours at 35° C.
Outline: as §1

Escherichia coli = settings: 18 hours at 35° C.

Structure (SMILES): CC(c1ccccc1)C1NC(=O)CNC(=O)C(CO)NC(=O)C(C(O)C2CNC(=N)N2C2OC(CO)C(O)C(O)C2O)NC(=O)C(C(O)C2CNC(=N)N2)NC(=O)C(Cc2ccc(OC3OC(CO)C(OC4OC5COC(c6cccc(Oc7cccc(C(F)(F)F)c7)c6)OC5C(O)C4O)C(O)C3O)cc2)NC1=O (centres unmarked) [Example 184]
- MIC Enterococcus avium (GC 4558) (Enterococcus sp.): 32 µg/mL (≈ 20.7 µM)
- MIC Enterococcus faecalis (ATCC 29212) (Enterococcus sp.): 32 µg/mL (≈ 20.7 µM)
- MIC Enterococcus faecalis (GC 2242) (Enterococcus sp.): 32 µg/mL (≈ 20.7 µM)
- MIC Enterococcus faecalis (GC 2691) (Enterococcus sp.): 32 µg/mL (≈ 20.7 µM)
- MIC Enterococcus faecalis (GC 3059) (Enterococcus sp.): 32 µg/mL (≈ 20.7 µM)
- MIC Enterococcus faecalis (GC 4552) (Enterococcus sp.): 32 µg/mL (≈ 20.7 µM)
- MIC Enterococcus faecalis (GC 4553) (Enterococcus sp.): 16 µg/mL (≈ 10.4 µM)
- MIC Enterococcus faecalis (GC 4554) (Enterococcus sp.): 32 µg/mL (≈ 20.7 µM)
- MIC Enterococcus faecalis (GC 6189) (Enterococcus sp.): 32 µg/mL (≈ 20.7 µM)
- MIC Enterococcus faecium (GC 2243) (Enterococcus sp.): 16 µg/mL (≈ 10.4 µM)
- MIC Enterococcus faecium (GC 4556) (Enterococcus sp.): 32 µg/mL (≈ 20.7 µM)
- MIC Enterococcus faecium (GC 4557) (Enterococcus sp.): 32 µg/mL (≈ 20.7 µM)
- MIC Enterococcus faecalis (ATCC 29212) (Enterococcus sp.; inoculum 5×10^5 CFU/mL, strain ATCC 29212): 32 µg/mL (≈ 20.7 µM)
- MIC Enterococcus faecalis (GC 2242) (Enterococcus sp.; inoculum 5×10^5 CFU/mL, strain GC 2242): 32 µg/mL (≈ 20.7 µM)
- MIC Enterococcus faecium (GC 2243) (Enterococcus sp.; inoculum 5×10^5 CFU/mL, strain GC 2243): 16 µg/mL (≈ 10.4 µM)
- MIC Enterococcus faecalis (GC 2691) (Enterococcus sp.; inoculum 5×10^5 CFU/mL, strain GC 2691): 32 µg/mL (≈ 20.7 µM)
- MIC Enterococcus faecalis (GC 3059) (Enterococcus sp.; inoculum 5×10^5 CFU/mL, strain GC 3059): 32 µg/mL (≈ 20.7 µM)
- MIC Enterococcus faecalis (GC 4552) (Enterococcus sp.; inoculum 5×10^5 CFU/mL, strain GC 4552): 32 µg/mL (≈ 20.7 µM)
- MIC Enterococcus faecalis (GC 4553) (Enterococcus sp.; inoculum 5×10^5 CFU/mL, strain GC 4553): 16 µg/mL (≈ 10.4 µM)
- MIC Enterococcus faecalis (GC 4554) (Enterococcus sp.; inoculum 5×10^5 CFU/mL, strain GC 4554): 32 µg/mL (≈ 20.7 µM)
- MIC Enterococcus faecium (GC 4556) (Enterococcus sp.; inoculum 5×10^5 CFU/mL, strain GC 4556): 32 µg/mL (≈ 20.7 µM)
- MIC Enterococcus faecium (GC 4557) (Enterococcus sp.; inoculum 5×10^5 CFU/mL, strain GC 4557): 32 µg/mL (≈ 20.7 µM)
- MIC Enterococcus avium (GC 4558) (Enterococcus sp.; inoculum 5×10^5 CFU/mL, strain GC 4558): 32 µg/mL (≈ 20.7 µM)
- MIC Enterococcus faecalis (GC 6189) (Enterococcus sp.; inoculum 5×10^5 CFU/mL, strain GC 6189): 32 µg/mL (≈ 20.7 µM)
- MIC Staphylococcus aureus (GC 1131) (Staphylococcus sp.; inoculum 5×10^5 CFU/mL): 32 µg/mL (≈ 20.7 µM)
- MIC Staphylococcus aureus (ATCC 29213) (Staphylococcus sp.; strain ATCC 29213): 32 µg/mL (≈ 20.7 µM)
- MIC Staphylococcus aureus (GC 1131) (Staphylococcus sp.): 32 µg/mL (≈ 20.7 µM)
- MIC Staphylococcus aureus (GC 3051) (Staphylococcus sp.; strain GC 3051): 32 µg/mL (≈ 20.7 µM)
- MIC Staphylococcus aureus (GC 3053) (Staphylococcus sp.; strain GC 3053): 32 µg/mL (≈ 20.7 µM)
- MIC Staphylococcus aureus (GC 4541) (Staphylococcus sp.; strain GC 4541): 32 µg/mL (≈ 20.7 µM)
- MIC Staphylococcus aureus (GC 4542) (Staphylococcus sp.; strain GC 4542): 32 µg/mL (≈ 20.7 µM)
- MIC Staphylococcus aureus-SMITH (GC 4543) (Staphylococcus sp.; strain GC 4543): 32 µg/mL (≈ 20.7 µM)
- MIC Staphylococcus aureus (GC 4544) (Staphylococcus sp.; strain GC 4544): 32 µg/mL (≈ 20.7 µM)
- MIC Staphylococcus aureus (GC 4545) (Staphylococcus sp.; strain GC 4545): 32 µg/mL (≈ 20.7 µM)
- MIC Staphylococcus haemolyticus (GC 4546) (Staphylococcus sp.; strain GC 4546): 32 µg/mL (≈ 20.7 µM)
- MIC Coagulase Negative Staphylococcus (GC 4547) (Staphylococcus sp.; strain GC 4547): 32 µg/mL (≈ 20.7 µM)
- MIC Coagulase Negative Staphylococcus (GC 4548) (Staphylococcus sp.; strain GC 4548): 16 µg/mL (≈ 10.4 µM)
- MIC Coagulase Negative Staphylococcus (GC 4549) (Staphylococcus sp.; strain GC 4549): 32 µg/mL (≈ 20.7 µM)
- MIC Coagulase Negative Staphylococcus (GC 4551) (Staphylococcus sp.; strain GC 4551): 32 µg/mL (≈ 20.7 µM)
- MIC Coagulase Negative Staphylococcus (GC 6257) (Staphylococcus sp.; strain GC 6257): 16 µg/mL (≈ 10.4 µM)
- MIC Streptococcus agalactiae (GC 4564) (Streptococcus sp.): 0.12 µg/mL (≈ 0.0777 µM)
- MIC Streptococcus pneumoniae (ATCC 6301) (Streptococcus sp.): <0.06 µg/mL
- MIC Streptococcus pneumoniae (GC 1894) (Streptococcus sp.): <0.06 µg/mL
- MIC Streptococcus pneumoniae (GC 4565) (Streptococcus sp.): <0.06 µg/mL
- MIC Streptococcus pyogenes (GC 4563) (Streptococcus sp.): 0.25 µg/mL (≈ 0.162 µM)
- MIC Streptococcus pneumoniae (ATCC 6301) (Streptococcus sp.; inoculum 5×10^5 CFU/mL, strain ATCC 6301): <0.06 µg/mL
- MIC Streptococcus pneumoniae (GC 1894) (Streptococcus sp.; inoculum 5×10^5 CFU/mL, strain GC 1894): <0.06 µg/mL
- MIC Streptococcus pyogenes (GC 4563) (Streptococcus sp.; inoculum 5×10^5 CFU/mL, strain GC 4563): 0.25 µg/mL (≈ 0.162 µM)
- MIC Streptococcus agalactiae (GC 4564) (Streptococcus sp.; inoculum 5×10^5 CFU/mL, strain GC 4564): 0.12 µg/mL (≈ 0.0777 µM)
- MIC Streptococcus pneumoniae (GC 4565) (Streptococcus sp.; inoculum 5×10^5 CFU/mL, strain GC 4565): <0.06 µg/mL
- MIC Escherichia coli (ATCC 25922) (Escherichia coli): >64 µg/mL
- MIC Escherichia coli (GC 4559) (Escherichia coli): >64 µg/mL
- MIC Escherichia coli (GC 4560) (Escherichia coli): 32 µg/mL (≈ 20.7 µM)
